What was measured:
platelet aggregation = assay: In vitro inhibition of platelet aggregation (BORN's method), induced by collagen or ADP; type: cell-based, animal and human; settings: 100 μg/ml, aspirin as reference
Protocol: In vitro inhibition of platelet aggregation The inhibition of platelet aggregation is measured in vitro by BORN's method (Nature 4832, 927 (1962)), the aggregation being induced by collagen or ADP. […] The aggregation can also be induced in vitro by serotonin, arachidonic acid and norepinephrine. Furthermore, this inhibitory effect was observed on platelet-rich plasma (PRP) of animal origin and human origin.

[1] = test system: platelet-rich human plasma; platelet aggregation induced by collagen; assay: Platelet aggregation (platelet-rich human plasma) induced in vitro by collagen; type: cell-based; settings: platelet-rich human plasma, 300,000 platelets/cm^2, 10.0 μg/ml of collagen; read-out: IC50, inductor: collagen
Protocol: (§1) Study of the Effects on the Platelet Aggregation (Platelet-Rich Human Plasma) Induced in Vitro By: ADP, Collagen or Arachidonic Acid Blood samples from volunteer donors are treated and adjusted to a platelet concentration of 300,000/cm^2 and then incubated with different concentrations of the test products. Aggregation is induced by 2.0 μg/ml of ADP or by 10.0 μg/ml of collagen. The measurements are made using a Bryston-type aggregometer--or CHRONOLOG. The changes in optical density are noted and the values of the concentrations which cause a 50% inhibition are calculated.

[2] = test system: isolated guinea-pig intestine; assay: Antagonistic effects on isolated guinea-pig intestine (MAGNUS); settings: 0.1 μg/ml
[3] = test system: platelet-rich human plasma; platelet aggregation induced by ADP; assay: Platelet aggregation (platelet-rich human plasma) induced in vitro by ADP; type: cell-based; settings: platelet-rich human plasma, 300,000 platelets/cm^2, 2.0 μg/ml of ADP; read-out: IC50, inductor: ADP
Protocol: as §1

Row | IC50 [1] | IC50 [3] | SMILES | inhibition of platelet aggregation compared with aspirin (platelet aggregation) | inhibitory effect on isolated guinea-pig intestine [2]
1 | 24 µg/mL | 10 µg/mL | CCN(CC)CCON=C1CC(=NOCCN(CC)CC)c2ccccc2-c2ccccc21.Cl.Cl [Example 15, 5,7-Bis(2-Diethylaminoethoxyimino)-6,7-Dihydro-(5H)-Dibenzo[a,c]Cycloheptene Dihydrochloride] | comparable or even superior to aspirin | still substantial
2 | 22 µg/mL | 16 µg/mL | CCN(CC)CCON=C1CC(=NOCCN(CC)CC)c2ccccc2-c2ccccc21.O=C(O)/C=C\C(=O)O.O=C(O)/C=C\C(=O)O [Example 16, 5,7-Bis(2-Diethylaminoethoxyimino)-6,7-Dihydro-(5H)-Dibenzo[a,c]Cycloheptene Dimaleate] | comparable or even superior to aspirin | still substantial
3 | 16 µg/mL | 10 µg/mL | CCN(CC)CCON=C1CC(=NOCCN(CC)CC)c2ccccc2-c2ccccc21.O=C(O)C(O)C(O)C(=O)O.O=C(O)C(O)C(O)C(=O)O [Example 17, 5,7-Bis(2-Diethylaminoethoxyimino)-6,7-Dihydro-(5H)-Dibenzo[a,c]Cycloheptene Ditartrate] | comparable or even superior to aspirin | still substantial
4 | 50 µg/mL | 40 µg/mL | Cl.Cl.NCCON=C1CC(=NOCCN)c2ccccc2-c2ccccc21 [Example 18, 5,7-Bis(2-Aminoethoxyimino)-6,7-Dihydro-(5H)-Dibenzo[a,c]Cycloheptene Dihydrochloride] | comparable or even superior to aspirin | still substantial
5 | 175 µg/mL | 100 µg/mL | Cl.Cl.NCCCON=C1CC(=NOCCCN)c2ccccc2-c2ccccc21 [Example 19, 5,7-Bis(3-Aminopropoxyimino)-6,7-Dihydro-(5H)-Dibenzo[a,c]Cycloheptene Dihydrochloride] | comparable or even superior to aspirin | still substantial
